Source: BigSolDB 2.1

Oc1ccccc1C=N[C@@H]1CCCC[C@H]1N=Cc1ccccc1O
solubility (mole fraction)
Conditions | 273.15 K | 278.15 K | 283.15 K | 288.15 K | 293.15 K | 298.15 K | 303.15 K | 308.15 K | 313.15 K
in 1,2-dichloroethane | 0.0862 | 0.0965 | 0.109 | 0.12 | 0.134 | 0.15 | 0.168 | 0.187 | 0.211
in THF | 0.135 | 0.144 | 0.157 | 0.169 | 0.186 | 0.201 | 0.221 | 0.242 | 0.263
in acetone | 0.0295 | 0.0351 | 0.0402 | 0.0462 | 0.053 | 0.0626 | 0.0732 | 0.0843 | 0.0956
in acetonitrile | 0.00397 | 0.00491 | 0.00616 | 0.0076 | 0.00961 | 0.0122 | 0.0159 | 0.02 | 0.025
in dichloromethane | 0.117 | 0.13 | 0.141 | 0.154 | 0.165 | 0.18 | 0.197 | 0.213 | 0.229
in ethanol | 0.000787 | 0.000988 | 0.00123 | 0.00153 | 0.00189 | 0.00236 | 0.0029 | 0.00358 | 0.00452
in ethyl acetate | 0.0241 | 0.0294 | 0.0347 | 0.0415 | 0.0489 | 0.0592 | 0.0691 | 0.0852 | 0.101
in methanol | 0.00051 | 0.000645 | 0.000817 | 0.00103 | 0.00128 | 0.00161 | 0.00198 | 0.00242 | 0.00298
in methyl acetate | 0.0199 | 0.0244 | 0.0292 | 0.0357 | 0.0436 | 0.0532 | 0.0648 | 0.0791 | 0.0961
in n-hexane | 0.000539 | 0.000713 | 0.000988 | 0.00131 | 0.00172 | 0.00223 | 0.00287 | 0.00376 | 0.00449
in n-propanol | 0.001 | 0.00125 | 0.00157 | 0.00196 | 0.00243 | 0.00303 | 0.00372 | 0.00452 | 0.00554
in toluene | 0.0411 | 0.0487 | 0.0566 | 0.0674 | 0.0802 | 0.0954 | 0.11 | 0.129 | 0.149
